From ChEMBL document CHEMBL5357031, “Design and Synthesis of Cytotoxic Water-Soluble Rocaglaol Derivatives against HEL Cells by Inhibiting Fli-1” (J Nat Prod, 2024)

What was measured:
[1] = tested on: HEL; assay: Induction of apoptosis in HEL cells assessed as late apoptotic cells at 0.4 uM incubated for 48 hrs by Annexin V/PI staining based flow cytometry (reference value: 1.83 %); type: functional, Homo sapiens
[2] = tested on: HEL; assay: Induction of cell cycle arrest in HEL cells assessed as cell accumulation at G1 phase at 0.1 uM incubated for 48 hrs by […] (reference value: 54.17 %); type: functional, Homo sapiens
[3] = tested on: HEL; assay: Cytotoxicity against HEL cells assessed as cell growth inhibition incubated for 72 hrs by MTT assay; type: functional, cell-based, Homo sapiens; settings: hel
[4] = tested on: HEL; assay: Induction of apoptosis in HEL cells assessed as viable cells at 0.1 uM incubated for 24 hrs by Annexin V/PI staining based flow cytometry (reference value: 94.94 %); type: functional; settings: Homo sapiens, read-out: Activity
[5] = tested on: HEL; assay: Induction of apoptosis in HEL cells assessed as early apoptotic cells at 0.1 uM incubated for 48 hrs by Annexin V/PI staining based flow cytometry (reference value: 1.62 %); type: functional, Homo sapiens
[6] = tested on: HEL; assay: Induction of cell cycle arrest in HEL cells assessed as cell accumulation at S phase at 0.2 uM incubated for 24 hrs by […] (reference value: 16.18 %); type: functional, Homo sapiens
[7] = Solubility of compound in PBS at pH 7.4 at 1.7 mg measured for 24 hrs by HPLC-UV analysis; type: physicochemical
[8] = tested on: HEL; assay: Induction of cell cycle arrest in HEL cells assessed as cell accumulation at G1 phase at 0.2 uM incubated for 24 hrs by Western blot analysis (reference value: 39.11 %); type: functional, Homo sapiens
[9] = tested on: HEL; assay: Induction of apoptosis in HEL cells assessed as late apoptotic cells at 0.1 uM incubated for 24 hrs by Annexin V/PI staining based flow cytometry (reference value: 1.98 %); type: functional, Homo sapiens
[10] = tested on: HEL; assay: Induction of apoptosis in HEL cells assessed as necrotic cells at 0.1 uM incubated for 24 hrs by Annexin V/PI staining based flow cytometry (reference value: 1.61 %); type: functional, Homo sapiens
[11] = tested on: HEL; assay: Induction of apoptosis in HEL cells assessed as late apoptotic cells at 0.1 uM incubated for 48 hrs by Annexin V/PI staining based flow cytometry (reference value: 1.83 %); type: functional, Homo sapiens
[12] = tested on: HEL; assay: Induction of apoptosis in HEL cells assessed as necrotic cells at 0.1 uM incubated for 48 hrs by Annexin V/PI staining based flow cytometry (reference value: 0.92 %); type: functional, Homo sapiens
[13] = tested on: HEL; assay: Induction of cell cycle arrest in HEL cells assessed as cell accumulation at S phase at 0.2 uM incubated for 48 hrs by […] (reference value: 33.66 %); type: functional, Homo sapiens
[14] = tested on: HEL; assay: Induction of cell cycle arrest in HEL cells assessed as cell accumulation at G1 phase at 0.4 uM incubated for 48 hrs by […] (reference value: 54.17 %); type: functional, Homo sapiens
[15] = tested on: HEL; assay: Induction of apoptosis in HEL cells assessed as late apoptotic cells at 0.4 uM incubated for 24 hrs by Annexin V/PI staining based flow cytometry (reference value: 1.98 %); type: functional, Homo sapiens
[16] = tested on: HEL; assay: Induction of apoptosis in HEL cells assessed as necrotic cells at 0.2 uM incubated for 48 hrs by Annexin V/PI staining based flow cytometry (reference value: 0.92 %); type: functional, Homo sapiens
[17] = tested on: HEL; assay: Induction of cell cycle arrest in HEL cells assessed as cell accumulation at G1 phase at 0.1 uM incubated for 24 hrs by […] (reference value: 39.11 %); type: functional, Homo sapiens
[18] = tested on: HEL; assay: Induction of apoptosis in HEL cells assessed as early apoptotic cells at 0.4 uM incubated for 48 hrs by Annexin V/PI staining based flow cytometry (reference value: 1.62 %); type: functional, Homo sapiens
[19] = tested on: SW480; assay: Cytotoxicity against human SW480 cells assessed as cell growth inhibition incubated for 72 hrs by MTT assay; type: functional, cell-based; settings: sw480
[20] = tested on: HEL; assay: Induction of apoptosis in HEL cells assessed as viable cells at 0.2 uM incubated for 24 hrs by Annexin V/PI staining based flow cytometry (reference value: 94.94 %); type: functional; settings: Homo sapiens, read-out: Activity
[21] = tested on: HEL; assay: Induction of apoptosis in HEL cells assessed as early apoptotic cells at 0.1 uM incubated for 24 hrs by Annexin V/PI staining based flow cytometry (reference value: 1.47 %); type: functional, Homo sapiens
[22] = tested on: HEL; assay: Induction of apoptosis in HEL cells assessed as late apoptotic cells at 0.2 uM incubated for 48 hrs by Annexin V/PI staining based flow cytometry (reference value: 1.83 %); type: functional, Homo sapiens
[23] = tested on: HEL; assay: Induction of apoptosis in HEL cells assessed as early apoptotic cells at 0.2 uM incubated for 24 hrs by Annexin V/PI staining based flow cytometry (reference value: 1.47 %); type: functional, Homo sapiens
[24] = tested on: HEL; assay: Induction of cell cycle arrest in HEL cells assessed as cell accumulation at G2/M phase at 0.4 uM incubated for 24 hrs by […] (reference value: 16.18 %); type: functional, Homo sapiens
[25] = tested on: HEL; assay: Induction of cell cycle arrest in HEL cells assessed as cell accumulation at G2/M phase at 0.2 uM incubated for 48 hrs by […] (reference value: 20.36 %); type: functional, Homo sapiens
[26] = tested on: HEL; assay: Induction of cell cycle arrest in HEL cells assessed as cell accumulation at G2/M phase at 0.1 uM incubated for 48 hrs by […] (reference value: 20.36 %); type: functional, Homo sapiens
[27] = tested on: HEL; assay: Induction of apoptosis in HEL cells assessed as viable cells at 0.4 uM incubated for 24 hrs by Annexin V/PI staining based flow cytometry (reference value: 94.94 %); type: functional; settings: Homo sapiens, read-out: Activity
[28] = tested on: HEL; assay: Induction of apoptosis in HEL cells assessed as early apoptotic cells at 0.2 uM incubated for 48 hrs by Annexin V/PI staining based flow cytometry (reference value: 1.62 %); type: functional, Homo sapiens
[29] = tested on: HEL; assay: Induction of cell cycle arrest in HEL cells assessed as cell accumulation at G1 phase at 0.4 uM incubated for 24 hrs by […] (reference value: 39.11 %); type: functional, Homo sapiens
[30] = tested on: HEL; assay: Induction of cell cycle arrest in HEL cells assessed as cell accumulation at G1 phase at 0.2 uM incubated for 48 hrs by […] (reference value: 54.17 %); type: functional, Homo sapiens
[31] = tested on: HEL; assay: Induction of apoptosis in HEL cells assessed as necrotic cells at 0.2 uM incubated for 24 hrs by Annexin V/PI staining based flow cytometry (reference value: 1.61 %); type: functional, Homo sapiens
[32] = tested on: HEL; assay: Induction of apoptosis in HEL cells assessed as late apoptotic cells at 0.2 uM incubated for 24 hrs by Annexin V/PI staining based flow cytometry (reference value: 1.98 %); type: functional, Homo sapiens
[33] = tested on: MDA-MB-231
Description: Cytotoxicity against human MDA-MB-231 cells assessed as cell growth inhibition incubated for 72 hrs by MTT assay

[34] = tested on: HEL; assay: Induction of apoptosis in HEL cells assessed as viable cells at 0.2 uM incubated for 48 hrs by Annexin V/PI staining based flow cytometry (reference value: 95.63 %); type: functional; settings: Homo sapiens, read-out: Activity
[35] = tested on: HEL; assay: Induction of apoptosis in HEL cells assessed as viable cells at 0.1 uM incubated for 48 hrs by Annexin V/PI staining based flow cytometry (reference value: 95.63 %); type: functional; settings: Homo sapiens, read-out: Activity
[36] = tested on: HEL; assay: Induction of apoptosis in HEL cells assessed as necrotic cells at 0.4 uM incubated for 48 hrs by Annexin V/PI staining based flow cytometry (reference value: 0.92 %); type: functional, Homo sapiens
[37] = tested on: HEL; assay: Induction of apoptosis in HEL cells assessed as necrotic cells at 0.4 uM incubated for 24 hrs by Annexin V/PI staining based flow cytometry (reference value: 1.61 %); type: functional, Homo sapiens
[38] = tested on: HEL; assay: Induction of cell cycle arrest in HEL cells assessed as cell accumulation at G2/M phase at 0.2 uM incubated for 24 hrs by […] (reference value: 16.18 %); type: functional, Homo sapiens
[39] = tested on: HEL; assay: Induction of cell cycle arrest in HEL cells assessed as cell accumulation at G2/M phase at 0.4 uM incubated for 48 hrs by […] (reference value: 20.36 %); type: functional, Homo sapiens
[40] = tested on: HEL; assay: Induction of cell cycle arrest in HEL cells assessed as cell accumulation at G2/M phase at 0.1 uM incubated for 24 hrs by […] (reference value: 16.18 %); type: functional, Homo sapiens
[41] = tested on: HEL; assay: Induction of cell cycle arrest in HEL cells assessed as cell accumulation at S phase at 0.1 uM incubated for 24 hrs by […] (reference value: 16.18 %); type: functional, Homo sapiens
[42] = tested on: HEL; assay: Induction of apoptosis in HEL cells assessed as early apoptotic cells at 0.4 uM incubated for 24 hrs by Annexin V/PI staining based flow cytometry (reference value: 1.47 %); type: functional, Homo sapiens
[43] = tested on: HEL; assay: Induction of cell cycle arrest in HEL cells assessed as cell accumulation at S phase at 0.1 uM incubated for 48 hrs by […] (reference value: 33.66 %); type: functional, Homo sapiens
[44] = tested on: HEL; assay: Induction of cell cycle arrest in HEL cells assessed as cell accumulation at S phase at 0.4 uM incubated for 24 hrs by […] (reference value: 16.18 %); type: functional, Homo sapiens
[45] = tested on: HEL; assay: Induction of cell cycle arrest in HEL cells assessed as cell accumulation at S phase at 0.4 uM incubated for 48 hrs by […] (reference value: 33.66 %); type: functional, Homo sapiens
[46] = tested on: HEL; assay: Induction of apoptosis in HEL cells assessed as viable cells at 0.4 uM incubated for 48 hrs by Annexin V/PI staining based flow cytometry (reference value: 95.63 %); type: functional; settings: Homo sapiens, read-out: Activity

solubility at 24 h [7]: 12.5 mg/mL
IC50 [33]: > 1000 nM
SMILES: COc1cc(OC)c2c(c1)O[C@@]1(c3ccc(OCCCCCN4CCN(C)CC4)cc3)[C@H](c3ccccc3)C[C@@H](O)[C@@]21O.O=C(O)/C=C/C(=O)O (racemic; form 2)
Activity [1]: 10.08%
Activity [2]: 43.16%
IC50 [3]: 190 nM
viability at 0.1 µM [4]: 94.7%
Activity [5]: 3.45%
Activity [6]: 27.85%
Activity [8]: 50.73%
Activity [9]: 2.02%
Activity [10]: 1.96%
Activity [11]: 3.54%
Activity [12]: 1.02%
Activity [13]: 19.87%
Activity [14]: 66.15%
Activity [15]: 2.1%
Activity [16]: 3.11%
Activity [17]: 39.54%
Activity [18]: 18.85%
IC50 [19]: > 1000 nM
viability at 0.2 µM [20]: 95.2%
Activity [21]: 1.34%
Activity [22]: 7.65%
Activity [23]: 1.5%
Activity [24]: 18.31%
Activity [25]: 15.61%
Activity [26]: 25.52%
viability at 0.4 µM [27]: 94.6%
Activity [28]: 6.37%
Activity [29]: 54.17%
Activity [30]: 62.59%
Activity [31]: 1.68%
Activity [32]: 1.66%
viability at 0.2 µM [34]: 82.9%
viability at 0.1 µM [35]: 92%
Activity [36]: 2.21%
Activity [37]: 1.12%
Activity [38]: 20.55%
Activity [39]: 8.35%
Activity [40]: 21.09%
Activity [41]: 39.19%
Activity [42]: 2.17%
Activity [43]: 30.25%
Activity [44]: 27.85%
Activity [45]: 19.87%
viability at 0.4 µM [46]: 68.9%
